Measurements reported in patent US11384063B2, “Modulators of estrogen receptor proteolysis and associated methods of use” (Arvinas Operations, Inc., priority 2017, dated 2022).

Columns and labels:
ERα [1] = target: T1, ERα (Homo sapiens, UniProt P03372); assay: Estrogen receptor-alpha (ERα) degradation assay in MCF7 cells using In-Cell Western assay; type: cell-based; parameters: assessed for their activity in degrading ERα in MCF-7 cells via western blot; endogenous in cells; host or cells: MCF7 cells; conditions: ER-alpha degradation in MCF7 cells, 5 days of incubation
T1 sequence (P03372 1-595): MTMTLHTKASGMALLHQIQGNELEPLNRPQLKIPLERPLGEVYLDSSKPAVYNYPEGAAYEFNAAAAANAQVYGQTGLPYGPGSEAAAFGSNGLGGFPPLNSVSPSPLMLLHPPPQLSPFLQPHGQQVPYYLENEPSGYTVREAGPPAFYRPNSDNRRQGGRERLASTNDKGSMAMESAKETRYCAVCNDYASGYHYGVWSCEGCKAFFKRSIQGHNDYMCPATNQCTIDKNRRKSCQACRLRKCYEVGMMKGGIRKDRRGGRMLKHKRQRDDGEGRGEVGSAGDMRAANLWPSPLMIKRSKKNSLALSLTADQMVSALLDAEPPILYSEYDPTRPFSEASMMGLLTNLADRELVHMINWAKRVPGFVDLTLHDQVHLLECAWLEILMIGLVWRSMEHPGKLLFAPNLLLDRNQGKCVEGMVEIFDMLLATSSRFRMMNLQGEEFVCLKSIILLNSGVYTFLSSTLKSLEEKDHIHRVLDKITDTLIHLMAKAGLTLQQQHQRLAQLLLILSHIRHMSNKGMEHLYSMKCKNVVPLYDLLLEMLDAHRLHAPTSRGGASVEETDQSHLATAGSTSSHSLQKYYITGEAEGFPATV
Description: Estrogen Receptor-Alpha (ERα) Degradation Assay Using in-Cell Western™ Assay for Table 5.
Degradation of ERα by claimed compounds were determined in MCF7 cells using an In-Cell Western™ assay. Briefly, MCF7 cells were plated in 96-well plates (2000 cells per well in 100 μl media) and incubated at 37° C. under an atmosphere of 5% CO2 in a humidified incubator overnight. One-hundred (100) μI of media containing test compound (at 2x concentration) was added to the appropriate wells to provide 11 serially decreasing concentrations (top final concentration, 1 μM then 3-fold less for the next 10 concentrations); a vehicle control (DMSO) was also added for each compound. For each experiment, all compounds were assayed on duplicate plates. Cells were then incubated for 3 or 5 days in the above-mentioned environment. The assay was terminated by removal of media, a single wash with ice-cold PBS and the addition of 50 μl paraformaldehyde (PFA: 4% in PBS). After 15 minutes in PFA at room temperature, the cells were permeabilized in Tris-phosphate-buffered saline with Tween (0.1%) (TBST) supplemented with Triton X-100 (0.5%) for 15 minutes. Cells were then blocked in BSA (TBST with BSA, 3%) for one hour. Primary antibodies for the detection of ERa (rabbit monoclonal, 1:1000, Cell Signaling Technology Catalog #8644) and tubulin (mouse monoclonal, 1:5000, Sigma Catalog #T6074) in TBST with BSA (3%) were added. The cells were incubated overnight at 4° C. The cells were then washed thrice with TBST at room temperature and then incubated with anti-rabbit and anti-mouse fluorescently-labelled secondary antibodies (IRDye®; LI-COR; Lincoln, Nebr.) in LI-COR blocking buffer (Catalog #927-50000) for one hour at room temperature. Following 3 washes with TBST, the buffer was removed and the plates were read on an Odyssey® infrared imaging system (LI-COR®, Lincoln, Nebr.) at 700 nm and 800 nm. Using commercial software (ImageStudio™; LI-COR, Lincoln, Nebr.), the staining intensity for ERa and tubulin in each well was quantified and exported for analysis. For each data point, ERa intensity was normalized to tubulin intensity and for each compound all normalized intensity values were normalized to the vehicle control. DC50 and Dmax values were determined following a 4-parameter IC50 curve fit using ACAS dose response module (McNeil & Co Inc.).

ERα [2] = target: T1, ERα; assay: ERE luciferase reporter gene assay in T47D-KBluc cells (target engagement); type: cell-based; parameters: T47D human breast cancer cells stably transfected with estrogen responsive element/promoter/luciferase reporter gene; host or cells: T47D-KBluc cells; conditions: 10% FBS, 24 hours, Table 3 cereblon centric PROTACs, read-out: ER-α Luciferase IC50
Procedure, shortened: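 T47D-KBluc breast cancer cells, which carry a stable ERE-luciferase reporter, were grown in RPMI with 10% FBS (about 10 pM estrogen) and exposed to PROTACs for 24 h. The 12-point, 3-fold series ran from 300 nM to 2 pM. Luciferase was read after lysis, and IC50 was fitted from duplicates.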

SMILES	DC50 (ERα [1])	Dmax (ERα [1])	IC50 (ERα [2])
O=C1CCC(N2Cc3c(cc(F)c(N4CCN(C5CCN(CCOc6ccc(Oc7c(-c8ccc(Br)cc8)sc8cc(O)ccc78)cc6)CC5)CC4)c3F)C2=O)C(=O)N1 (stereo not shown) [Compound 205, 3-[5-[4-[1-[2-[4-[2-(4-bromophenyl)-6-hydroxybenzothiophen-3-yl]oxyphenoxy]ethyl]-4-piperidyl]piperazin-1-yl]-4,6-difluoro-1-oxo-isoindolin-2-yl]piperidine-2,6-dione]	10 to 100 nM	> 75%	3.5 nM
O=C1CCC(N2C(=O)c3ccc(N4CC(N5CCC(Oc6ccc(Oc7c(-c8ccc(Br)cc8)sc8cc(O)ccc78)cc6)CC5)C4)cc3C2=O)C(=O)N1 (stereo not shown) [Compound 213, 5-[3-[4-[4-[2-(4-bromophenyl)-6-hydroxybenzothiophen-3-yl]oxyphenoxy]-1-pipendyl]azetidin-1-yl]2-(2,6-dioxo-3-piperidyl)isoindoline-1,3-dione]	–	< 50%	11.2 nM
O=C1CCC(N2C(=O)c3ccc(N4CCC(CN5CC(c6ccc(Oc7c(-c8ccc(Br)cc8)sc8cc(O)ccc78)cc6)C5)CC4)cc3C2=O)C(=O)N1 (stereo not shown) [Compound 214]	1 to 10 nM	50 to 75%	10.4 nM
O=C1CCC(N2Cc3cc(N4CCN(CCCCc5ccc(Oc6c(-c7ccc(Br)cc7)sc7cc(O)ccc67)cc5)CC4)ccc3C2=O)C(=O)N1 (stereo not shown) [Compound 215, 3-[5-[4-[4-[4-[2-(4-bromophenyl)-6-hydroxybenzothiophen-3-yl]oxyphenyl]butyl]piperazin-1-yl]-1-oxo-isoindolin-2-yl]piperidine-2,6-dione]	1 to 10 nM	50 to 75%	5.3 nM
O=C1CCC(N2Cc3cc(N4CCC(CN5CC(c6ccc(Oc7c(-c8ccc(Br)cc8)sc8cc(O)ccc78)cc6)C5)CC4)ccc3C2=O)C(=O)N1 (stereo not shown) [Compound 216, 3-[5-[4-[[3-[4-[2-[4-bromophenyl)-6-hydroxy-benzothiophen-3-yl]oxyphenyl]azetidin-1-yl]methyl]-1-piperidyl]-1-oxo-isoindolin-2-yl]piperidine-2,6-dione]	1 to 10 nM	50 to 75%	2.7 nM
O=C1CCC(N2Cc3cc(N4CCN(CCCOc5ccc(Oc6c(-c7ccc(OC(F)(F)F)cc7)sc7cc(O)ccc67)cc5)CC4)ccc3C2=O)C(=O)N1 (stereo not shown) [Compound 217, 3-[5-[4-[3-[4-[6-hydroxy-2-[4-(trifluoromethoxy)phenyl]benzothiophen-3-yl]oxyphenoxy]propyl]piperazin-1-yl]-1-oxo-isoindolin-2-yl]piperidine-2,6-dione]	1 to 10 nM	50 to 75%	7.5 nM
O=C1CCC(N2Cc3cc(N4CCN(CCCOc5ccc(Oc6c(-c7ccc(F)cc7)sc7cc(O)ccc67)cc5)CC4)ccc3C2=O)C(=O)N1 (stereo not shown) [Compound 220, 3-[5-[4-[3-[4-[2(4-fluorophenyl)-6-hydroxybenzothiophen-3-yl]oxyphenoxy]propyl]piperazin-1-yl]-1-oxo-isoindolin-2-yl]piperidine-2,6-dione]	1 to 10 nM	50 to 75%	1.5 nM
O=C1CCC(N2Cc3cc(N4CCN(CCCOc5ccc(Oc6c(-c7ccc(F)c(F)c7)sc7cc(O)ccc67)cc5)CC4)ccc3C2=O)C(=O)N1 (stereo not shown) [Compound 221, 3-[5-[4-[3-[4-[2-(3,4-difluorophenyl)-6-hydroxy-benzothiophen-3-yl]oxyphenoxy]propyl]piperazin-1-yl]-1-oxo-isoindolin-2-yl]piperidine-2,6-dione]	1 to 10 nM	50 to 75%	2.4 nM
O=C1CCC(N2C(=O)c3ccc(N4CCN([C@H]5C[C@H](Oc6ccc(Oc7c(-c8ccc(Br)cc8)sc8cc(O)ccc78)cc6)C5)CC4)cc3C2=O)C(=O)N1 (stereo partly drawn) [Compound 223, trans-5-[4-[3-[4-[2-(4-bromophenyl)-6-hydroxy-benzothiophen-3-yl]oxyphenoxy]cyclobutyl]piperazin-1-yl]-2-(2,6-dioxo-3-piperidyl)isoindoline-1,3-dione]	10 to 100 nM	> 75%	41.1 nM
O=C1CCC(N2Cc3cc(N4CCN(C5CC(Oc6ccc(Oc7c(-c8ccc(Br)cc8)sc8cc(O)ccc78)cc6)C5)CC4)ccc3C2=O)C(=O)N1 (stereo not shown) [Compound 224, 3-[5-[4-[3-[4-[2-(4-bromophenyl)-6-hydroxy-benzothiophen-3-yl]oxyphenoxy]cyclobutyl]piperazin-1-yl]-1-oxo-isoindolin-2-yl]piperidine-2,6-dione]	1 to 10 nM	50 to 75%	7.7 nM
O=C1CCC(N2C(=O)c3ccc(N4CCN(CCOCc5ccc(Oc6c(-c7ccc(Br)cc7)sc7cc(O)ccc67)cc5)CC4)cc3C2=O)C(=O)N1 (stereo not shown) [Compound 225, 5-[4-[2-[[4-[2-(4-bromophenyl)-6-hydroxy-benzothiophen-3-yl]oxyphenyl]methoxy]ethyl]piperazin-1-yl]-2-(2,6-dioxo-3-piperidyl)isoindoline-1,3-dione]	–	< 50%	4.8 nM
O=C1CCC(N2Cc3cc(N4CCN(CC5CCN(c6ccc(Oc7c(-c8ccc(F)cc8)sc8cc(O)ccc78)cc6)CC5)CC4)ccc3C2=O)C(=O)N1 (stereo not shown) [Compound 226, 3-[5-[4-[[1-[4-[2-(4-fluorophenyl)-6-hydroxy-benzothiophen-3-yl]oxyphenyl]-4-piperidyl]methyl]piperazin-1-yl]-1-oxo-isoindolin-2-yl]piperidine-2,6-dione]	1 to 10 nM	> 75%	1.2 nM
O=C1CCC(N2C(=O)c3ccc(N4CCN(CC5CCN(c6ccc(Oc7c(-c8ccc(F)cc8)sc8cc(O)ccc78)cc6)CC5)CC4)cc3C2=O)C(=O)N1 (stereo not shown) [Compound 227, 2-(2,6-dioxo-3-piperidyl)-5-[4-[[1-[4-[2-(4-fluorophenyl)-6-hydroxy-benzothiophen-3-yl]oxyphenyl]-4-piperidyl]methyl]piperazin-1-yl]isoindoline-1,3-dione]	1 to 10 nM	> 75%	7 nM
O=C1CCC(N2C(=O)c3ccc(N4CCN(CC5CCN(c6ccc(Oc7c(-c8ccc(Br)cc8)sc8cc(O)ccc78)cc6)CC5)CC4)cc3C2=O)C(=O)N1 (stereo not shown) [Compound 228, 5-[4-[[1-[4-[2-(4-bromophenyl)-6-hydroxy-benzothiophen-3-yl]oxyphenyl]-4-pipendyl]methyl]piperazin-1-yl]-2-(2,6-dioxo-3-piperidyl)isoindoline-1,3-dione]	1 to 10 nM	> 75%	24.9 nM
O=C1CCC(N2Cc3cc(N4CCN(CCC5CCN(c6ccc(Oc7c(-c8ccc(F)cc8)sc8cc(O)ccc78)cc6)CC5)CC4)ccc3C2=O)C(=O)N1 (stereo not shown) [Compound 229, 3-[5-[4-[2-[1-[4-[2-(4-fluorophenyl)-6-hydroxy-benzothiophen-3-yl]oxyphenyl]-4-piperidyl]ethyl]piperazin-1-yl]-1-oxo-isoindolin-2-yl]piperidine-2,6-dione]	1 to 10 nM	> 75%	1 nM
